Patent publication US20060069132A1, “Azolecarboxamide herbicides” (priority 2004, published 2006)

What was measured:
barnyardgrass = experiment: Test B pre-/postemergence herbicide test; assay type: in vivo, Echinochloa crus-galli; conditions: for Barnyardgrass plant response rating: postemergence, scale 0 (no effect) to 100 (complete control)
Summary of the method: (§1)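 Species tested were Echinochloa crus-galli, Ipomoea coccinea, Xanthium strumarium and Oryza sativa, treated both before emergence and at the 1- to 4-leaf stage; rice and barnyardgrass were also tested under flooding at 2 leaves. Greenhouse incubation lasted 13–15 days before visual 0–100 scoring.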

Surinam grass = experiment: Test B pre-/postemergence herbicide test; assay type: in vivo, Urochloa decumbens; conditions: for Surinam Grass plant response rating: postemergence
Summary of the method: (§2)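 Plants compared with untreated controls 13–15 days post-treatment and given a visual 0–100 injury score. Applications: preemergence to seeds; postemergence at 1- to 4-leaf (2–18 cm); paddy species flooded, 2-leaf stage. Vehicle non-phytotoxic, surfactant included.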

cocklebur = experiment: Test B pre-/postemergence herbicide test; assay type: in vivo, Xanthium strumarium; conditions: for Cocklebur plant response rating: postemergence, scale 0 (no effect) to 100 (complete control)
Summary of the method: as §1

corn = experiment: Test B pre-/postemergence herbicide test; assay type: in vivo, Zea mays; conditions: for Corn plant response rating: postemergence
Summary of the method: as §2

large crabgrass = experiment: Test B pre-/postemergence herbicide test; assay type: in vivo, Digitaria sanguinalis; conditions: for Crabgrass, Large plant response rating: postemergence
Summary of the method: as §2

giant foxtail = experiment: Test B pre-/postemergence herbicide test; assay type: in vivo, Setaria faberi; conditions: for Foxtail, Giant plant response rating: postemergence
Summary of the method: as §2

lambsquarters = experiment: Test B pre-/postemergence herbicide test; assay type: in vivo, Chenopodium album; conditions: for Lambsquarters plant response rating: postemergence
Summary of the method: as §2

morningglory = experiment: Test B pre-/postemergence herbicide test; assay type: in vivo, Ipomoea coccinea; conditions: for Morningglory plant response rating: postemergence
Summary of the method: as §1

pigweed = experiment: Test B pre-/postemergence herbicide test; assay type: in vivo, Amaranthus retroflexus; conditions: for Pigweed plant response rating: postemergence
Summary of the method: as §2

velvetleaf = experiment: Test B pre-/postemergence herbicide test; assay type: in vivo, Abutilon theophrasti; conditions: for Velvetleaf plant response rating: postemergence
Summary of the method: as §2

blackgrass = experiment: Test B postemergence herbicide test; assay type: in vivo, Alopecurus myosuroides; conditions: postemergence, visual rating, scale 0 (no effect) to 100 (complete control)
Summary of the method: (§3)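 Plants grow to 1- to 4-leaf stage (2–18 cm) for postemergence spraying, or to 2-leaf stage for the paddy test. Formulated compound is applied. Greenhouse holding lasts 13–15 days. Response is scored visually relative to controls, 0 no effect to 100 complete control; a dash means no result.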

wheat = experiment: Test B postemergence herbicide test; assay type: in vivo, Triticum aestivum; set-up: key to Wheat plant response rating: 0 = no effect, 100 = complete control; conditions: postemergence
Summary of the method: (§4)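 After treating 2-leaf paddy plants or 2–18 cm postemergence plants (1 to 4 leaves) with formulated chemical, researchers kept them in a greenhouse for 13–15 days. Effects were judged visually versus controls: 0 indicates none, 100 total control.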

wild oat = experiment: Test B postemergence herbicide test; assay type: in vivo, Avena fatua; conditions: postemergence
Summary of the method: as §4

[1] = system: small flower umbrella sedge; experiment: Test B flooded paddy test; assay type: in vivo, Cyperus difformis; conditions: 1000 g ai/ha, scale 0 to 100 (0 no effect, 100 complete control)
Summary of the method: as §3

[2] = 125 g ai/ha, 0 = no effect, 100 = complete control, preemergence
[3] = 500 g ai/ha, visual rating, 0 = no effect, 100 = complete control, preemergence
[4] = 125 g ai/ha, visual rating, scale 0 (no effect) to 100 (complete control)
[5] = 500 g ai/ha, scale 0 to 100, 0 is no effect, 100 is complete control

Q: For `CCn1nc(C(C)(C)C)cc1C(=O)Nc1cc(C(=O)N(C)OC)ccc1F` [Compound 244], which “Barnyardgrass plant response rating (0 to 100 scale)” value (barnyardgrass; [2]) is on record?
A: The value was 80.

Q: And the “Plant response rating, Barnyardgrass” value (barnyardgrass; [3])?
A: Its value is 90.

Q: What about the “Barnyardgrass plant response rating” value (barnyardgrass; 125 g ai/ha, visual rating) of the same compound?
A: Its value is 10.

Q: What about the “Barnyardgrass plant response rating” value (barnyardgrass; 500 g ai/ha, visual rating) of the same compound?
A: Its value is 50.

Q: And the “Surinam Grass plant response rating (0 to 100 scale)” value (Surinam grass; [2])?
A: Its value is 70.

Q: And the “Plant response rating, Surinam Grass” value (Surinam grass; [3])?
A: Its value is 90.

Q: What about the “Surinam Grass plant response rating” value (Surinam grass; [4]) of the same compound?
A: Its value is 20.

Q: And the “Surinam Grass plant response rating” value (Surinam grass; [5])?
A: The value was 30.

Q: What about the “Cocklebur plant response rating (0 to 100 scale)” value (cocklebur; [2]) of the same compound?
A: Its value is 0.

Q: And the “Plant response rating, Cocklebur” value (cocklebur; [3])?
A: The value was 20.

Q: And the “Cocklebur plant response rating” value (cocklebur; 125 g ai/ha, visual rating)?
A: Its value is 30.

Q: And the “Cocklebur plant response rating” value (cocklebur; 500 g ai/ha, visual rating)?
A: Its value is 80.

Q: What about the “Corn plant response rating (0 to 100 scale)” value (corn; [2]) of the same compound?
A: Its value is 30.

Q: What about the “Plant response rating, Corn” value (corn; [3]) of the same compound?
A: Its value is 60.

Q: And the “Corn plant response rating” value (corn; [4])?
A: The value was 10.

Q: And the “Corn plant response rating” value (corn; [5])?
A: The value was 30.

Q: What about the “Crabgrass, Large plant response rating (0 to 100 scale)” value (large crabgrass; [2]) of the same compound?
A: Its value is 90.

Q: What about the “Plant response rating, Crabgrass, Large” value (large crabgrass; [3]) of the same compound?
A: Its value is 100.

Q: And the “Crabgrass, Large plant response rating” value (large crabgrass; [4])?
A: Its value is 10.

Q: And the “Crabgrass, Large plant response rating” value (large crabgrass; [5])?
A: The value was 30.

Q: What about the “Foxtail, Giant plant response rating (0 to 100 scale)” value (giant foxtail; [2]) of the same compound?
A: The value was 80.

Q: And the “Plant response rating, Foxtail, Giant” value (giant foxtail; [3])?
A: The value was 90.

Q: What about the “Foxtail, Giant plant response rating” value (giant foxtail; [4]) of the same compound?
A: Its value is 20.

Q: And the “Foxtail, Giant plant response rating” value (giant foxtail; [5])?
A: Its value is 30.

Q: What about the “Lambsquarters plant response rating (0 to 100 scale)” value (lambsquarters; [2]) of the same compound?
A: Its value is 90.

Q: And the “Plant response rating, Lambsquarters” value (lambsquarters; [3])?
A: Its value is 100.

Q: And the “Lambsquarters plant response rating” value (lambsquarters; [4])?
A: The value was 40.

Q: And the “Lambsquarters plant response rating” value (lambsquarters; [5])?
A: Its value is 70.

Q: And the “Morningglory plant response rating (0 to 100 scale)” value (morningglory; [2])?
A: The value was 0.

Q: And the “Plant response rating, Morningglory” value (morningglory; [3])?
A: The value was 20.

Q: What about the “Morningglory plant response rating” value (morningglory; [4]) of the same compound?
A: Its value is 10.

Q: What about the “Morningglory plant response rating” value (morningglory; [5]) of the same compound?
A: The value was 20.

Q: And the “Pigweed plant response rating (0 to 100 scale)” value (pigweed; [2])?
A: The value was 90.

Q: What about the “Plant response rating, Pigweed” value (pigweed; [3]) of the same compound?
A: The value was 100.

Q: What about the “Pigweed plant response rating” value (pigweed; [4]) of the same compound?
A: The value was 50.

Q: And the “Pigweed plant response rating” value (pigweed; [5])?
A: The value was 70.

Q: And the “Velvetleaf plant response rating (0 to 100 scale)” value (velvetleaf; [2])?
A: The value was 70.

Q: And the “Plant response rating, Velvetleaf” value (velvetleaf; [3])?
A: Its value is 100.

Q: And the “Velvetleaf plant response rating” value (velvetleaf; [4])?
A: Its value is 40.

Q: What about the “Velvetleaf plant response rating” value (velvetleaf; [5]) of the same compound?
A: Its value is 60.

Q: What about the “Blackgrass plant response rating” value (blackgrass; 125 g ai/ha) of the same compound?
A: The value was 10.

Q: And the “Blackgrass plant response rating” value (blackgrass; 500 g ai/ha)?
A: The value was 20.

Q: And the “Wheat plant response rating” value (wheat; [4])?
A: Its value is 10.

Q: What about the “Wheat plant response rating” value (wheat; [5]) of the same compound?
A: The value was 20.

Q: What about the “Oat, Wild plant response rating” value (wild oat; [4]) of the same compound?
A: The value was 30.

Q: And the “Oat, Wild plant response rating” value (wild oat; [5])?
A: Its value is 50.

Q: And the “Sedge, Umbrella plant response rating” value [1]?
A: Its value is 80.
